# Test results as given in PubChem BioAssay AID2060898 (Molecular Pharmacology Branch, DTP, NCI, 2025).
# Test system: 616215-338-R-J1-PDC complex spheroid viability
# Assay: Anticancer human tumor 616215-338-R-J1-PDC patient-derived colon adenocarcinoma cell line growth inhibition [RAS]
# Conditions: for IC50: curve of first compound; for viability, T/C: stronger effect = lower value
# Description: RAS pathway inhibitors in Combinations in Complex Spheroids
# A high-throughput screen of multi-cell type tumor spheroids was designed to identify active combinations of RAS pathway inhibitors and targeted small molecules. Complex spheroids include a stromal component modeled by human endothelial cells (HUVEC) and fibroblasts modeled by human mesenchymal stem cells (MSCs). The concentration ranges selected for each drug and investigational agent were based upon clinically achievable concentrations if the clinical Cmax of the agent was known.
# Compounds. The drugs and investigational agents: abemaciclib (NSC768073), cobimetinib (NSC768068), divarasib (GDC6063, NSC841802), docetaxel (NSC628503), GDC-1971 (RLY-1971, NSC841576), gemcitabine (NSC613327), inavolisib (NSC800729), ipatasertib (NSC767898), KB-0742 (NSC834161), MRTX-1133 (NSC836407), osimertinib (NSC779217), RMC-4630 (NSC839698), RMC-6236 (NSC851965), RMC-6291 (NSC852671), Ro-3306 (NSC812927), sapanisertib (NSC764658), SN-38 (NSC673596), staurosporine (NSC755774), SY5609 (NSC837396), and tovorafenib (DAY101, NSC766906), were obtained from the National Cancer Institute (NCI) Developmental Therapeutics Program Chemical Repository. The FDA-approved anticancer drug set is available from the NCI Developmental Therapeutics Program. […] The stock solutions were prepared in dimethyl sulfoxide (DMSO, Sigma-Aldrich, St. Louis, MO, cat. D2650) at 800-fold the tested concentration and stored at -70 degrees C prior to their use. All drugs and investigational agents were tested over a range starting from a high concentration at or near the clinical Cmax and decreasing in half-log increments. If the clinical Cmax for an agent had not been determined, the highest concentration tested was 10 microM.
# Cell Culture. All cells were maintained in an incubator at 37 degrees C and 5% CO2 with 95% humidity. The PDC lines were cultured according to standard operating procedures established by the NCI PDMR. All PDCs were thawed and cultured in Matrigel-coated flasks prepared with a working solution of 1X Ham's F-12 nutrient mix, without supplementation (Invitrogen, Waltham, MA, cat. 11765054), 100 U/mL penicillin-streptomycin (Invitrogen, cat. 15140122), and 2.5% Matrigel (Corning Inc., Corning, NY, cat. 354248) for the first three passages. The 362531-283-R-J2-PDC and 782815-120-R-J1-PDC lines were cultured in 6C/Colon 1B media, which includes advanced DMEM/F-12 (Thermo Fisher Scientific, cat. 12634028), 10 mM HEPES (Thermo Fisher Scientific, cat. 15630080), 1X GlutaMAX supplement (Thermo Fisher Scientific, cat. 35050061), 0.1 mg/mL primocin (InvivoGen, San Diego, CA, cat. ant-pm-2), 10% defined fetal bovine serum, heat inactivated (HyClone Laboratories Inc., Logan, UT, cat. SH30070.03HI), 50% L-WRN conditioned media (ATCC, cat. CRL-3276), 1.25 mM N-Acetyl-L-cysteine (Sigma-Aldrich, cat. A9165), 10 mM nicotinamide (Sigma-Aldrich, cat. N0636), 1X B-27 supplement (Thermo Fisher Scientific, cat. 17504044), 1X N-2 supplement (Thermo Fisher Scientific, cat. 17502048), 50 ng/mL human EGF (Thermo Fisher Scientific, cat. PHG0311), and 10 microM Y-27632 dihydrochloride (Tocris Bioscience, cat. 1254). The K12877-001-R-J1-PDC line was cultured in 6I media, which includes all 6C/Colon 1B media plus 10 ng/mL human FGF-10 (PeproTech, cat. 100-26), 1 ng/mL human FGF-2 (PeproTech, cat. 100-18B), 1 µM prostaglandin E2 (Tocris Bioscience, cat. 2296), […] hydrocortisone (Sigma-Aldrich, cat. H4001), and […] bovine insulin (Sigma-Aldrich, cat. I6634). The K86415-001-R-J1-PDC line was cultured in 6D media, which includes all 6C/Colon 1B media components minus the L-WRN conditioned media. The 485176-168-R4-J1-PDC was cultured in PANC media, which includes all 6C/Colon 1B media plus 100 ng/mL human FGF-10 (PeproTech, cat. 100-26), 500 nM SB-431542 (Selleckchem, cat. S1067), and 10 nM gastrin (Tocris Bioscience, cat. 3006). […]
# 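Note: spheroids exposed to agents for seven days before viability readout.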
# 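Throughout, for viability, T/C: 100% = DMSO vehicle control viability.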
smiles,measurement,setting,value
CC(C)n1nc(-c2ccc3oc(N)nc3c2)c2c(N)ncnc21 + C#Cc1c(F)ccc2cc(O)cc(-c3ncc4c(N5CC6CCC(C5)N6)nc(OCC56CCCN5CC(F)C6)nc4c3F)c12,IC50,second compound 0.0316 µM,> 100 nM
same,IC50,second compound 0.1 µM,> 100 nM
same,IC50,second compound 0.316 µM,> 100 nM
same,IC50,second compound 1 µM,> 100 nM
same,IC50,second compound 3.16 µM,59.9 nM
same,IC50,second compound 10 µM,13.9 nM
same,"viability, T/C","second compound 0.0316 µM, first compound 0.000316 µM",113%
same,"viability, T/C","second compound 0.0316 µM, first compound 0.001 µM",119%
same,"viability, T/C","second compound 0.0316 µM, first compound 0.00316 µM",112%
same,"viability, T/C","second compound 0.0316 µM, first compound 0.01 µM",114%
same,"viability, T/C","second compound 0.0316 µM, first compound 0.0316 µM",104%
same,"viability, T/C","second compound 0.0316 µM, first compound 0.1 µM",57.1%
same,"viability, T/C","second compound 0.1 µM, first compound 0.000316 µM",116%
same,"viability, T/C","second compound 0.1 µM, first compound 0.001 µM",107%
same,"viability, T/C","second compound 0.1 µM, first compound 0.00316 µM",113%
same,"viability, T/C","second compound 0.1 µM, first compound 0.01 µM",106%
same,"viability, T/C","second compound 0.1 µM, first compound 0.0316 µM",107%
same,"viability, T/C","second compound 0.1 µM, first compound 0.1 µM",58%
same,"viability, T/C","second compound 0.316 µM, first compound 0.000316 µM",116%
same,"viability, T/C","second compound 0.316 µM, first compound 0.001 µM",111%
same,"viability, T/C","second compound 0.316 µM, first compound 0.00316 µM",112%
same,"viability, T/C","second compound 0.316 µM, first compound 0.01 µM",112%
same,"viability, T/C","second compound 0.316 µM, first compound 0.0316 µM",99.9%
same,"viability, T/C","second compound 0.316 µM, first compound 0.1 µM",54.9%
same,"viability, T/C","second compound 1 µM, first compound 0.000316 µM",118%
same,"viability, T/C","second compound 1 µM, first compound 0.001 µM",111%
same,"viability, T/C","second compound 1 µM, first compound 0.00316 µM",121%
same,"viability, T/C","second compound 1 µM, first compound 0.01 µM",116%
same,"viability, T/C","second compound 1 µM, first compound 0.0316 µM",111%
same,"viability, T/C","second compound 1 µM, first compound 0.1 µM",54.2%
same,"viability, T/C","second compound 3.16 µM, first compound 0.000316 µM",86.8%
same,"viability, T/C","second compound 3.16 µM, first compound 0.001 µM",105%
same,"viability, T/C","second compound 3.16 µM, first compound 0.00316 µM",98.3%
same,"viability, T/C","second compound 3.16 µM, first compound 0.01 µM",77.9%
same,"viability, T/C","second compound 3.16 µM, first compound 0.0316 µM",67.9%
same,"viability, T/C","second compound 3.16 µM, first compound 0.1 µM",37.2%
same,"viability, T/C","second compound 10 µM, first compound 0.000316 µM",76.8%
same,"viability, T/C","second compound 10 µM, first compound 0.001 µM",64.2%
same,"viability, T/C","second compound 10 µM, first compound 0.00316 µM",68.2%
same,"viability, T/C","second compound 10 µM, first compound 0.01 µM",49.2%
same,"viability, T/C","second compound 10 µM, first compound 0.0316 µM",44.2%
same,"viability, T/C","second compound 10 µM, first compound 0.1 µM",27.9%
